# Patent publication US10813932B2, “1-pyrazolyl-3-(4-((2-anilinopyrimidin-4-yl) oxy) napththalen-1-yl) ureas as P38 MAP knase inhibitors” (Respivert Limited, priority 2011, dated 2020)
# Experiments:
# A/J mice = test: Cigarette smoke model; assay type: in vivo
# Procedure: A/J mice (males, 5 weeks old) were exposed to cigarette smoke (4% cigarette smoke, diluted with air) for 30 min/day for 11 days using a Tobacco Smoke Inhalation Experiment System for small animals (Model SIS-CS; Sibata Scientific Technology, Tokyo, Japan). Test substances were administered intra-nasally (35 μL of solution in 50% DMSO/PBS) once daily for 3 days after the final cigarette smoke exposure. At 12 hr after the last dosing, each of the animals was anesthetized, the trachea cannulated and bronchoalveolar lavage fluid (BALF) was collected. The numbers of alveolar macrophages and neutrophils were determined by FACS analysis (EPICS® ALTRA II, Beckman Coulter, Inc., Fullerton, Calif., USA) using anti-mouse MOMA2 antibody (macrophage) or anti-mouse 7/4 antibody (neutrophil). BALF was centrifuged and the supernatant was collected. The level of keratinocyte chemoattractant (KC; CXCL1) in BALF was quantitated using a Quentikine® mouse KC ELISA kit (R&D systems, Inc., Minneapolis, Minn., USA).
# Balb/c mice = test: LPS-induced neutrophil accumulation in mice; assay type: in vivo
# Procedure: Non-fasted Balb/c mice were dosed by the intra tracheal route with either vehicle, or the test substance at the indicated times (within the range 2-8 hr) before stimulation of the inflammatory response by application of an LPS challenge. At T=0, mice were placed into an exposure chamber and exposed to LPS (7.0 mL, 0.5 mg/mL solution in PBS) for 30 min). After a further 8 hr the animals were anesthetized, their tracheas cannulated and BALF extracted by infusing and then withdrawing from their lungs 1.0 mL of PBS via the tracheal catheter. Total and differential white cell counts in the BALF samples were measured using a Neubaur haemocytometer. Cytospin smears of the BALF samples were prepared by centrifugation at 200 rpm for 5 min at RT and stained using a DiffQuik stain system (Dade Behring). Cells were counted using oil immersion microscopy. Data for neutrophil numbers in BAL are shown as mean±S.E.M. (standard error of the mean). The percentage inhibition of neutrophil accumulation was calculated for each treatment relative to vehicle treatment.
smiles,measurement,setting,value
"Cc1ccc(-n2nc(C(C)(C)C)cc2NC(=O)Nc2ccc(Oc3ccnc(Nc4ccccc4)n3)c3ccccc23)cc1 [Example 1, 1-(3-(tert-Butyl)-1-(p-tolyl)-1H-pyrazol-5-yl)-3-(4-(2-(phenylamino)pyrimidin-4-yloxy)naphthalen-1-yl)urea]",cigarette smoke induced CXCL1 (KC) production in BALF,A/J mice,inhibited
same,macrophage accumulation in BALF induced by cigarette smoke,A/J mice,dose-dependent inhibition
same,neutrophil accumulation in BALF induced by cigarette smoke,A/J mice,dose-dependent inhibition
same,LPS-induced neutrophil accumulation,Balb/c mice,dose dependent inhibition
